Experimental data from PubChem BioAssay (NCI).
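Dose response: 5 concentrations. Exposure: 48 h. Format: 96-well plates. Endpoint: linear interpolation; highest concentration if not reached. GI50: concentration for 50% inhibition of growth. TGI marks complete inhibition of growth.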

Tests used:
Experiment in all cases: NCI anticancer screen, dose series, 48 h; in the data active = GI50 below about 0.43 µM; inactive = the rest
786-0 renal = tested on: 786-0 renal
HOP-62 NSCLC = tested on: HOP-62 NSCLC
HOP-92 NSCLC = tested on: HOP-92 NSCLC
HS 578T breast = tested on: HS 578T breast
MDA-MB-231 breast = tested on: MDA-MB-231 breast
OVCAR-4 ovarian = tested on: OVCAR-4 ovarian
SNB-19 CNS = tested on: SNB-19 CNS
SNB-75 CNS = tested on: SNB-75 CNS
SR leukemia = tested on: SR leukemia
TK-10 renal = tested on: TK-10 renal
U251 CNS = tested on: U251 CNS
A498 renal = tested on: A498 renal
A549 NSCLC = tested on: A549 NSCLC
ACHN renal = tested on: ACHN renal
BT-549 breast = tested on: BT-549 breast
CAKI-1 renal = tested on: CAKI-1 renal
COLO 205 colon = tested on: COLO 205 colon
DU-145 prostate = tested on: DU-145 prostate
EKVX NSCLC = tested on: EKVX NSCLC
HCC-2998 colon = tested on: HCC-2998 colon
HCT-116 colon = tested on: HCT-116 colon
HCT-15 colon = tested on: HCT-15 colon
HL-60(TB) leukemia = tested on: HL-60(TB) leukemia
HT29 colon = tested on: HT29 colon
IGROV1 ovarian = tested on: IGROV1 ovarian
K-562 leukemia = tested on: K-562 leukemia
KM12 colon = tested on: KM12 colon
LOX IMVI melanoma = tested on: LOX IMVI melanoma
M14 melanoma = tested on: M14 melanoma
MCF7 breast = tested on: MCF7 breast
MDA-MB-435 = tested on: MDA-MB-435
MOLT-4 leukemia = tested on: MOLT-4 leukemia
NCI-H226 lung = tested on: NCI-H226 lung
NCI-H23 lung = tested on: NCI-H23 lung
NCI-H460 lung = tested on: NCI-H460 lung
NCI-H522 lung = tested on: NCI-H522 lung
NCI/ADR-RES ovarian = tested on: NCI/ADR-RES ovarian
OVCAR-3 ovarian = tested on: OVCAR-3 ovarian
OVCAR-5 ovarian = tested on: OVCAR-5 ovarian
OVCAR-8 ovarian = tested on: OVCAR-8 ovarian
RXF 393 renal = tested on: RXF 393 renal
SF-268 CNS = tested on: SF-268 CNS
SF-295 CNS = tested on: SF-295 CNS
SF-539 CNS = tested on: SF-539 CNS
SK-MEL-2 melanoma = tested on: SK-MEL-2 melanoma
SK-MEL-28 melanoma = tested on: SK-MEL-28 melanoma
SK-MEL-5 melanoma = tested on: SK-MEL-5 melanoma
SN12C renal = tested on: SN12C renal
SW-620 colon = tested on: SW-620 colon
T-47D breast = tested on: T-47D breast
UACC-257 melanoma = tested on: UACC-257 melanoma
UACC-62 melanoma = tested on: UACC-62 melanoma
UO-31 renal = tested on: UO-31 renal

COc1cc(/C=C/C(=O)c2ccc(NC(=O)CSc3nnc(-c4cc(OC)c(OC)c(OC)c4)n3-c3ccccc3)cc2)cc(OC)c1OC
9.67 µM: TGI (HOP-92 NSCLC)
inactive: GI50 (786-0 renal) 1.05 µM | GI50 (HOP-62 NSCLC) 1.84 µM | GI50 (HOP-92 NSCLC) 2.06 µM | GI50 (HS 578T breast) 20.4 µM | GI50 (MDA-MB-231 breast) 4.09 µM | GI50 (OVCAR-4 ovarian) 1.8 µM | GI50 (SNB-19 CNS) 2.18 µM | GI50 (SNB-75 CNS) 0.429 µM | GI50 (TK-10 renal) 9.3 µM | GI50 (U251 CNS) 0.527 µM
active: GI50 (SR leukemia) 0.316 µM
7.06 µM: TGI (HOP-62 NSCLC)
14.2 µM: TGI (SNB-75 CNS)
4.63 µM: TGI (786-0 renal)
> 100 µM: TGI (HS 578T breast) | TGI (MDA-MB-231 breast) | TGI (OVCAR-4 ovarian) | TGI (SNB-19 CNS) | TGI (SR leukemia) | TGI (TK-10 renal) | TGI (U251 CNS)

C=C(CN1CCN(c2cccc(C(F)(F)F)n2)CC1)c1ccc(C(=S)Nc2ccccc2N)cc1
5.66 µM: TGI (HL-60(TB) leukemia)
41.3 µM: TGI (M14 melanoma)
42.1 µM: TGI (SK-MEL-28 melanoma)
6.49 µM: TGI (SR leukemia)
31.4 µM: TGI (NCI-H522 lung)
14.5 µM: TGI (MCF7 breast)
6.89 µM: TGI (UACC-62 melanoma)
inactive: GI50 (786-0 renal) 4.29 µM | GI50 (A498 renal) 2.57 µM | GI50 (A549 NSCLC) 3.32 µM | GI50 (ACHN renal) 3.88 µM | GI50 (BT-549 breast) 4.4 µM | GI50 (CAKI-1 renal) 3.26 µM | GI50 (COLO 205 colon) 3.19 µM | GI50 (DU-145 prostate) 6.99 µM | GI50 (EKVX NSCLC) 4.47 µM | GI50 (HCC-2998 colon) 5.74 µM | GI50 (HCT-116 colon) 2.76 µM | GI50 (HCT-15 colon) 4.11 µM | GI50 (HL-60(TB) leukemia) 2.29 µM | GI50 (HOP-62 NSCLC) 8.08 µM | GI50 (HS 578T breast) 3.52 µM | GI50 (HT29 colon) 3.05 µM | GI50 (IGROV1 ovarian) 6.93 µM | GI50 (K-562 leukemia) 1.57 µM | GI50 (KM12 colon) 4.04 µM | GI50 (LOX IMVI melanoma) 3.72 µM | GI50 (M14 melanoma) 3.81 µM | GI50 (MCF7 breast) 2.87 µM | GI50 (MDA-MB-231 breast) 2.52 µM | GI50 (MDA-MB-435) 3.77 µM | GI50 (MOLT-4 leukemia) 2.1 µM | GI50 (NCI-H226 lung) 4.91 µM | GI50 (NCI-H23 lung) 2.81 µM | GI50 (NCI-H460 lung) 2.99 µM | GI50 (NCI-H522 lung) 3.01 µM | GI50 (NCI/ADR-RES ovarian) 3.12 µM | GI50 (OVCAR-3 ovarian) 4.34 µM | GI50 (OVCAR-4 ovarian) 3.01 µM | GI50 (OVCAR-5 ovarian) 3.67 µM | GI50 (OVCAR-8 ovarian) 5.33 µM | GI50 (RXF 393 renal) 3.74 µM | GI50 (SF-268 CNS) 8.08 µM | GI50 (SF-295 CNS) 3.48 µM | GI50 (SF-539 CNS) 5.72 µM | GI50 (SK-MEL-2 melanoma) 4.13 µM | GI50 (SK-MEL-28 melanoma) 6.95 µM | GI50 (SK-MEL-5 melanoma) 1.46 µM | GI50 (SN12C renal) 4.64 µM | GI50 (SNB-19 CNS) 4.12 µM | GI50 (SNB-75 CNS) 5.71 µM | GI50 (SR leukemia) 2.44 µM | GI50 (SW-620 colon) 4.07 µM | GI50 (T-47D breast) 2.26 µM | GI50 (TK-10 renal) 3.13 µM | GI50 (U251 CNS) 3.77 µM | GI50 (UACC-257 melanoma) 3.33 µM | GI50 (UACC-62 melanoma) 2.28 µM | GI50 (UO-31 renal) 4.14 µM
38.5 µM: TGI (U251 CNS)
> 100 µM: TGI (786-0 renal) | TGI (A498 renal) | TGI (A549 NSCLC) | TGI (ACHN renal) | TGI (BT-549 breast) | TGI (CAKI-1 renal) | TGI (DU-145 prostate) | TGI (EKVX NSCLC) | TGI (HCC-2998 colon) | TGI (HCT-15 colon) | TGI (HOP-62 NSCLC) | TGI (HS 578T breast) | TGI (IGROV1 ovarian) | TGI (KM12 colon) | TGI (MDA-MB-435) | TGI (NCI-H226 lung) | TGI (NCI/ADR-RES ovarian) | TGI (OVCAR-3 ovarian) | TGI (OVCAR-4 ovarian) | TGI (OVCAR-5 ovarian) | TGI (OVCAR-8 ovarian) | TGI (RXF 393 renal) | TGI (SF-268 CNS) | TGI (SF-295 CNS) | TGI (SF-539 CNS) | TGI (SK-MEL-2 melanoma) | TGI (SN12C renal) | TGI (SNB-19 CNS) | TGI (SNB-75 CNS) | TGI (TK-10 renal) | TGI (UO-31 renal)
18.8 µM: TGI (NCI-H460 lung) | TGI (UACC-257 melanoma)
17.6 µM: TGI (LOX IMVI melanoma)
19.8 µM: TGI (HCT-116 colon)
18.2 µM: TGI (HT29 colon)
4.48 µM: TGI (K-562 leukemia)
8.9 µM: TGI (MDA-MB-231 breast)
8.85 µM: TGI (NCI-H23 lung)
72.2 µM: TGI (SW-620 colon)
3.17 µM: TGI (SK-MEL-5 melanoma)
6.4 µM: TGI (MOLT-4 leukemia)
8.54 µM: TGI (T-47D breast)
11.8 µM: TGI (COLO 205 colon)
